Values after ≈ are worked out from the molar mass of the structure shown.
How the values were obtained:
[1] = test system: S. cerevisiae; assay: MIC determination, CLSI protocol M27-A3, OD490; assay type: cell-based; conditions: Saccharomyces cerevisiae; S. cerevisiae planktonic growth, 50% reduction vs control, mean±SEM
Experimental: S. cerevisiae BY4741 cells were grown in SMD minimal media to mid-log phase and then treated with the indicated concentrations of 5-MF; control cells were treated with the same amount of solvent (DMSO). (A) Clonogenicity was assayed by plating 500 cells on YPD agar plates and colony forming units (CFUs) were counted to calculate survival rates. (B) Yeast cells were analyzed for cell death markers via AnnV/PI co-staining using flow cytometry. (C) The accumulation of reactive oxygen species was monitored by dihydrotethidium (DHE) to ethidium (Eth) conversion using flow cytometry. Assays in (A-C) were performed on day 3 after treatment. […] Data was analyzed by one-way ANOVA and corrected for multiple comparison using a Bonferroni post-hoc test. ns: not significant, * p<0.05, *** p<0.001, **** p<0.0001. […] The minimal inhibitory concentration (MIC) was determined following the standard Clinical and Laboratory Standards Institute (CLSI) protocol M27 (Rex JH, and Clinical and Laboratory Standards Institute (2008). Reference method for broth dilution antifungal susceptibility testing of yeasts: approved standard, 3rd ed. National Committee for Clinical Laboratory Standards, Wayne, PA) for yeast strains or the standard CLSI protocol […] […] After incubation, OD490 values were measured using 96-well plate reader and growth capacity was analyzed by setting the corresponding control to 100%. […]

[2] = test system: C. albicans SC5314; assay: C. elegans infection model for C. albicans infection; assay type: in vivo, Caenorhabditis elegans; conditions: C. elegans Δglp-4 Δsek-1 infected with C. albicans
Experimental: Survival curves of non-infected (ui ctrl.) and infected (i ctrl.) nematodes treated or not with 5-MF are shown in (A), and the survival of living nematodes on day 5 is shown in (B). Synchronized C. elegans Δglp-4 Δsek-1 larvae were infected at the L4 stage as previously described (Delattin N, et al., Antimicrob Chemother. 69(2014): 1035-1044). 35-50 infected worms were then suspended in 750 μL growth medium (M9 buffer supplemented with 10 mg/L cholesterol, 100 mg/L kanamycin and 75 mg/L ampicillin) in separate wells of a 24-well plate with at least 3 wells for each condition. Worms were treated with 200 μM 5-MF or the corresponding volume of solvent (i ctrl) immediately after infection (single application). Worm survival was monitored daily over the period of five days. Additionally, the survival of non-infected worms (ui ctrl) was monitored as a control. […] In (B), worm survival is expressed as the percentage of viability at day 5 compared to day 0, with data analyzed using one-way ANOVA and corrected for multiple comparison using a Bonferroni post-hoc test. ** p<0.01, **** p<0.0001. […]
For efficacy testing of compounds, 750 μL of the worm suspension were transferred into each well of a 24-well plate and substances were added at indicated concentrations (1% DMSO). Nematodes were immediately counted (t0) and survival was monitored over five days post infection by counting living worms. […]

COc1cccc2oc(-c3ccccc3)cc(=O)c12 [5-MF, 5-methoxyflavone]
MIC50 [1]: 90.6 ± 12.4 µM (≈ 22.9 µg/mL)
worms alive at day 5 post infection ([2]; 200 μM 5-MF single application, infected control 20.6%): 42.9%
nematode survival over 5 days post infection ([2]; compared to infected control): prolonged protection

— patent US12673038B2, “Antimycotic methoxyflavone and fluconazole combination for inhibiting cryptococcus” (Karl-Franzens-Universität Graz, priority 2019, dated 2026)
